The results in this text go back to patent publication US8530520B2, “Cycloalkyl-dione derivatives and methods of their use” (The Trustees Of The University Of Pennsylvania, priority 2011, dated 2013).

One may read the IC50 as the midpoint of a concentration-inhibition curve. Higher therefore signals weaker potency in that assay.

For this assay, the target named is T1, human TP receptor (Homo sapiens, UniProt P21731).
T1 sequence (P21731 1-343): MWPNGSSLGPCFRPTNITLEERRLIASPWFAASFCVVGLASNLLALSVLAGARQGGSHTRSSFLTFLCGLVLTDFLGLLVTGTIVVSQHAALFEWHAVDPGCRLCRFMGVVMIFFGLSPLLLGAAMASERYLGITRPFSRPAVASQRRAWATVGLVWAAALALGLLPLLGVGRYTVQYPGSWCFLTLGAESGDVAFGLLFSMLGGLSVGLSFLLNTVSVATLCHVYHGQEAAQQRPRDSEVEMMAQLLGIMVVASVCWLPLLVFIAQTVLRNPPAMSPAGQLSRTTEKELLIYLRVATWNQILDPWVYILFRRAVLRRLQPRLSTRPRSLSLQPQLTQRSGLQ
The assay can be described thus: biochemical.
Molecule `O=C1CCC(O)=C1Cc1cccc(CCNS(=O)(=O)c2ccc(Cl)cc2)c1` [Compound 50, 4-Chloro-N-(3-((2-hydroxy-5-oxocyclopent-1-en-1-yl)methyl)phenethyl)benzenesulfonamide] gave an IC50 of 11400 nM.

On to `O=S(=O)(NCCc1cccc(CCCO)c1)c1ccc(Cl)cc1` [Compound 59], for which the half-inhibitory concentration (IC50) is above 10000 nM.

Molecule `CC1=C(O)C(Cc2cccc(CCNS(=O)(=O)c3ccc(Cl)cc3)c2)CC1=O` (stereo not drawn) [Compound 42, 4-Chloro-N-(3-((2-hydroxy-3-methyl-4-oxocyclopent-2-en-1-yl)methyl)phenethyl)-benzenesulfonamide] yielded a concentration for half-maximal inhibition (IC50) of 328 nM.

Regarding `O=C1C=C(O)C(Cc2cccc(CCNS(=O)(=O)c3ccc(Cl)cc3)c2)C1` (stereo not drawn) [Compound 41, 4-Chloro-N-(3-((2-hydroxy-4-oxocyclopent-2-en-1-yl)methyl)phenethyl)benzenesulfonamide], the half-maximal inhibitory concentration (IC50) was 203 nM.

Consider `O=c1c(O)c(NCc2cccc(CCNS(=O)(=O)c3ccc(Cl)cc3)c2)c1=O` [Compound 61], for which the IC50 was 359 nM.

On to `O=S(=O)(NCCc1cccc(CCc2nnn[nH]2)c1)c1ccc(Cl)cc1` [Compound 60], for which the 50% inhibitory concentration (IC50) was found to be 331 nM.
